Measured values reported in the NIST ThermoML archive (doi:10.1021/je400246s).
Numbers after ± are expanded uncertainties.

Legend:
[1] = Crystal; DTA
[2] = Molar enthalpy of transition or fusion; conditions: Crystal; DSC

Compound	Normal melting temperature [1] [°C]	Molar enthalpy of transition or fusion [2] [kcal/mol]
O=C(O)c1cccc(Cl)c1C(=O)c1ccccc1 [2-benzoyl-3-chlorobenzoic acid]	233.2 ± 1.1	8.49 ± 0.526
O=C1c2ccccc2C(=O)c2c(Cl)cccc21 [1-chloroanthraquinone]	162.1 ± 1.1	6.99 ± 0.454
